US12336981B2, “Compounds and compositions for the inhibition of NAMPT” (Valo Health, Inc., priority 2010, dated 2025)
Where two headings read alike, the source gives them in different places.

Assays:
A2780 cells = assay: In-vitro cell proliferation assay (SRB), A2780 cells; assay type: cell-based; conditions: Homo sapiens, A2780, 72 h, A2780 cells, 72 hours, read-out: A2780 IC50
Summary of the method: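 Growth inhibition was derived from background-corrected SRB absorbance (570 nm), measured on cells fixed in 6% TCA after three days of compound treatment under 5% CO2 at 37° C.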

NAMPT = target: T1, NAMPT (Homo sapiens, UniProt P43490); assay: Biochemical inhibition assay: NAMPT enzymatic reaction, NMN quantified by mass spectrometry
T1 construct: His tag; host or cells: E. coli
T1 sequence (P43490 whole entry): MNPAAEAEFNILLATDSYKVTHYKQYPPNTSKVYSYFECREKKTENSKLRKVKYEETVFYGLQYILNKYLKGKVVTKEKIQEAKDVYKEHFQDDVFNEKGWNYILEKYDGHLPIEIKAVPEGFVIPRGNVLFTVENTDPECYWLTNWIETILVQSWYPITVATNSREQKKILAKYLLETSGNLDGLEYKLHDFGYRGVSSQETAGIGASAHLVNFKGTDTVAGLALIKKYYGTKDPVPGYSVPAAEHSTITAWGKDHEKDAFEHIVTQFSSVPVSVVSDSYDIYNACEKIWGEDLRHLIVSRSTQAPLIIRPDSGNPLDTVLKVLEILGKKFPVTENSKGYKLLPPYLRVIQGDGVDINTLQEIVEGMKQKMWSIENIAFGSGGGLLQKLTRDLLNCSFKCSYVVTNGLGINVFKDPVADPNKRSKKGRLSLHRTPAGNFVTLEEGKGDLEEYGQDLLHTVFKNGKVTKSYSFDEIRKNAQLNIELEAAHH
Summary of the method: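 Inhibition of E. coli-expressed His-tagged human NAMPT, measured as NMN formation by mass spectrometry after a 30 min room-temperature reaction containing 1 μM NAM, 100 μM PRPP and 2.5 mM ATP.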

[1] = NAMPT enzymatic reaction, read-out: Biochem IC50
[2] = NAMPT enzymatic assay, read-out: Biochem IC50

Compound: Cc1ccc(S(=O)(=O)c2ccc(CNC(=O)c3ccc4nccn4c3)cc2)cc1F [N-({4-[(3-fluoro-4-methylbenzene)sulfonyl]phenyl}methyl)imidazo[1,2-a]pyridine-6-carboxamide]
- IC50 (A2780 cells; SRB): 3.78 nM
- IC50 (NAMPT; [1]): 0.0133 µM

Compound: O=C(NCc1ccc(S(=O)(=O)c2ccc(OC(F)(F)F)cc2)cc1)c1cnc2nccn2c1
- IC50 (A2780 cells; SRB): 17.6 nM
- IC50 (NAMPT; [2]): 0.005 µM

Compound: CCCOc1ccc(S(=O)(=O)c2ccc(CNC(=O)c3cc4ccncc4s3)cc2)cc1F
- IC50 (A2780 cells; SRB): 8.1 nM
- IC50 (NAMPT; [1]): 0.0037 µM

Compound: Cc1cc(C)n(-c2cccc(S(=O)(=O)c3ccc(CNC(=O)c4ccc5ncsc5c4)cc3)c2)n1
- IC50 (A2780 cells; SRB): 100 to 1000 nM
- IC50 (NAMPT; [2]): 0.0179 µM

Compound: COc1cccc(S(=O)(=O)c2ccc(CNC(=O)c3cc4cnccc4[nH]3)cc2)c1OC
- IC50 (A2780 cells; SRB): 4.9 nM
- IC50 (NAMPT; [1]): 0.0117 µM

Compound: O=C(NCc1ccc(S(=O)(=O)c2cccc(N3CCCCC3)c2)cc1)c1cc2ccncc2s1
- IC50 (A2780 cells; SRB): 13.6 nM
- IC50 (NAMPT; [2]): 0.0167 µM

Compound: O=C(NCc1ccc(S(=O)(=O)c2ccc(OC(F)(F)F)c(F)c2)cc1)c1cc2ccncc2o1
- IC50 (A2780 cells; SRB): 15.6 nM
- IC50 (NAMPT; [2]): 0.01 µM

Compound: CCN(C)c1ncc(S(=O)(=O)c2ccc(CNC(=O)c3ccc4nccn4c3)cc2)s1 [N-[(4-{2-[ethyl(methyl)amino]-1,3-thiazole-5-sulfonyl}phenyl)methyl]imidazo[1,2-a]pyridine-6-carboxamide]
- IC50 (A2780 cells; SRB): 0.4 nM
- IC50 (NAMPT; [2]): 0.0033 µM

Compound: O=C(NCc1ccc(S(=O)(=O)c2ccccc2OC(F)(F)F)cc1)c1cc2ccncc2s1 [N-[(4-{[2-(trifluoromethoxy)benzene]sulfonyl}phenyl)methyl]thieno[2,3-c]pyridine-2-carboxamide]
- IC50 (A2780 cells; SRB assay): 2.8 nM
- IC50 (NAMPT; [1]): 0.004 µM

Compound: Cc1cncc(S(=O)(=O)c2ccc(CNC(=O)c3cnc4nccn4c3)cc2)c1 [N-{[4-(5-methylpyridine-3-sulfonyl)phenyl]methyl}imidazo[1,2-a]pyrimidine-6-carboxamide]
- IC50 (A2780 cells; SRB): 12.4 nM
- IC50 (NAMPT; [2]): 0.0022 µM

Compound: O=C(NCc1ccc(S(=O)(=O)c2ccccc2)cc1)c1ccc2ccncc2c1 [N-{[4-(benzenesulfonyl)phenyl]methyl}isoquinoline-7-carboxamide]
- IC50 (A2780 cells; SRB assay): 24000 nM
- IC50 (NAMPT; [1]): 0.219 µM

Compound: Cc1cccc(S(=O)(=O)c2ccc(CNC(=O)c3cnc4[nH]ncc4c3)cc2)c1F
- IC50 (A2780 cells; SRB): 23.9 nM
- IC50 (NAMPT; [1]): 0.0197 µM

Compound: Cn1ncc2c(S(=O)(=O)c3ccc(CNC(=O)c4cc5cc(O)ccc5[nH]4)cc3)cccc21 [5-hydroxy-N-{[4-(1-methyl-1H-indazole-4-sulfonyl)phenyl]methyl}-1H-indole-2-carboxamide]
- IC50 (A2780 cells; SRB): > 1000 nM
- IC50 (NAMPT; [1]): 0.1 to 1 µM

Compound: O=C(NCc1ccc(NS(=O)(=O)c2ccccc2)cc1)c1cc2cnccc2[nH]1 [N-[(4-benzenesulfonamidophenyl)methyl]-1H-pyrrolo[3,2-c]pyridine-2-carboxamide]
- IC50 (A2780 cells; SRB assay): 5 nM
- IC50 (NAMPT; [1]): 0.011 µM

Compound: O=C(NCc1ccc(S(=O)(=O)c2cccc(Cl)c2F)cc1)c1cc2ccncc2o1
- IC50 (A2780 cells; SRB): 12.8 nM
- IC50 (NAMPT; [1]): 0.0109 µM

Compound: CN(C)c1ncc(S(=O)(=O)c2ccc(CNC(=O)c3cc4ccncc4o3)cc2)cn1 [N-({4-[2-(dimethylamino)pyrimidine-5-sulfonyl]phenyl}methyl)furo[2,3-c]pyridine-2-carboxamide]
- IC50 (A2780 cells; SRB): 12 nM
- IC50 (NAMPT; [2]): 0.0258 µM

Compound: O=C(NCc1ccc(S(=O)(=O)c2ccc(N3CCOCC3)nc2)cc1)c1cc2ccncc2s1 [N-({4-[6-(morpholin-4-yl)pyridine-3-sulfonyl]phenyl}methyl)thieno[2,3-c]pyridine-2-carboxamide]
- IC50 (A2780 cells; SRB): 0.7 nM
- IC50 (NAMPT; Biochem IC50 uM): 0.0041 µM

Compound: CC(C)Oc1ccc(Cl)cc1S(=O)(=O)c1ccc(CNC(=O)c2cc3ccncc3o2)cc1
- IC50 (A2780 cells; SRB): 12.1 nM
- IC50 (NAMPT; [2]): 0.0091 µM

Compound: CCOc1ccccc1S(=O)(=O)c1ccc(CNC(=O)c2cnc3[nH]ncc3c2)cc1
- IC50 (A2780 cells; SRB): 26.9 nM
- IC50 (NAMPT; [1]): 0.0493 µM

Compound: O=C(NCc1ccc(S(=O)(=O)c2ccc(Cl)c(Cl)c2)cc1)c1cnc2nccn2c1
- IC50 (A2780 cells; SRB): 1.7 nM
- IC50 (NAMPT; [1]): 0.0015 µM
